# Laboratory results taken from patent US9573907B2, “2, 4-pyrimidine derivatives and use thereof” (SNU R&DB FOUNDATION, priority 2009, dated 2017).
# Assays:
# [1] = target: T1, AIMP1 (Homo sapiens, UniProt Q12904); assay: Surface plasmon resonance, binding to AIMP1; conditions: SPR, BIAcore 3000
# T1 sequence (Q12904 1-312): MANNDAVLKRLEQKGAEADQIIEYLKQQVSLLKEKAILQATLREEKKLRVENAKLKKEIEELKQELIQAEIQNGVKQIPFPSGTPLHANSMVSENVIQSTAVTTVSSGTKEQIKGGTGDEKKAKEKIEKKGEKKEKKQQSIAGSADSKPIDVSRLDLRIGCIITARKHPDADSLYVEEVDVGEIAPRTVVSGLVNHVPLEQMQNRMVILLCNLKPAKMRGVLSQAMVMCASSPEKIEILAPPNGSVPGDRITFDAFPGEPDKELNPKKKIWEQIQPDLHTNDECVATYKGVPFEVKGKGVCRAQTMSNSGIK
# Source text: The present inventors compared the dose-dependent effect of GPM1 and NC1 on the interaction of gp96 and AIMP1 using ELISA. […] The present inventors monitored the binding kinetics of GPM1 to gp96 or AIMP1 by surface plasmon resonance (SPR) using BIAcore 3000. […] To further define the GPM1 binding region of gp96 (Han, J. M., Park, S. G., Liu, B., Park, B. J., Kim, J. Y., Jin, C. H., Song, Y. W., Li, Z. & Kim, S. Am. J. Pathol. 170, 2042-2054 (2007)), the present inventors introduced point mutations at L707, V706, V712, L713, F714, Y731 and M738 that are located within AIMP1 binding region of gp96 and monitored how the mutations at these sites would affect the binding of GPM1 to gp96 using SPR method.
# [2] = test system: gp96tm transgenic mice
# Description: Female gp96tm transgenic mice (Proc Natl Acad Sci USA. 2003 December 23; 100(26): 15824-15829) were bred and maintained at the animal center for pharmaceutical research, Seoul National University. We used age-matched, 12-26 weeks old mice in each experimental group. To suppress cell surface gp96 we used GPM1 compound. Dexamethasone and GPM1 were dissolved in 5% DMSO in phosphate-buffered saline (PBS) and control vehicle was 5% DMSO in PBS. Compounds were administered i.p. every 24 h for 2 months (30 mg/kg/day). Three groups of each 9 mice were examined. All procedures were conducted in accordance with the Guide for the Care and Use of Laboratory Animals, published by the Korean National Institute of Health.
# Spleen and lymph node cell suspensions were prepared by grindling tissue through sterile mesh and erythrocytes were lysed with RBC lysis buffer (eBioscience, CA). For surface staining, antibodies were fluoresceinisothiocyanate (FITC)-, phycoerythrin (PE)-, PerCP-, or APC-conjugated. Antibodies used were CD4 (RM4-5, H129.12), CD8 (53-6,7), B220 (RA3-6B2), CD11b (M1/70), CD11c (HL3), CD44 (IM7), CD62L (MEL-14), CD69 (H1.2F3), CD25 (PC61.5), IgM (11/41), IgD (11-26C.2a) (BD Pharmingen, CA), MHC class II (M5/114.15.2), Foxp3 (FJK-16s) (eBioscience, CA), and gp96 (Santacruz, Calif.). After staining, cells were washed and analyzed on a FACS can flow cytometer using CellQuest software (BD Bioscience, Mountain View, Calif.).
# Kidney tissue sections of gp96tm transgenic mice were fixed in 10% formaldehyde in PBS and dehydrated using an alcohol gradient. After paraffin infiltration, the tissues were sectioned using a microtome, stained with hematoxylin and eosin (H&E) and analyzed by light microscopy. For immunofluorescent staining, kidneys were sectioned with a cryostat. These cryosections were blocked with normal goat serum, stained with FITC-conjugated goat anti-mouse Ig (BD pharmingen, CA), and then observed by fluorescent microscopy.
# The present inventors compared the effect of GPM1 with phosphate-buffered saline containing 5% DMSO and dexamethasone (Dex), an immunosuppressant of glucocorticoid family as negative and positive control, respectively. Each group consisted of age-matched nine female mice. […] After 2 month, the present inventors isolated MHC class II^+ splenocytes and lymph nodes from vehicle-, Dex-, and GPM1-treated mice and determined the portion of gp96^+ cells by flow cytometry.
# [3] = spleen and lymph nodes, 30 mg/kg
compound,measurement,setting,value
"COC(=O)[C@@H](Oc1nc(OC)cc(OC)n1)C(C)C [GPM1, (S)-methyl 2-(4,6-dimethoxypyrimidin-2-yloxy)-3-methylbutanoate]",binding to AIMP1,[1],no apparent binding
same,glomerulonephritis phenotypes and glomerular immunoglobulin deposition,[2]; kidney sections,lessened
same,total cell count (spleen),"[2]; mouse, in vivo, 30 mg/kg/day",4.56 ± 1.44 × 10^6
same,adverse effects / death during administration,"[2]; mouse, in vivo, ip, 30 mg/kg",did not give apparent adverse effects
same,DNA-specific autoantibody levels,[2]; serum,reduced
same,Nuclear antigen-specific autoantibody levels,[2]; serum,reduced
same,"total serum levels of IgG1, IgG2b, IgG3, IgM, and IgA","[2]; serum, ELISA",reduced
same,CD4+CD25+Foxp3+ regulatory T cell population,[2]; spleen and lymph nodes,increase
same,population of CD4+ memory cells and activated CD4+ T cells,[2]; spleen and lymph nodes,reduction
same,B220+ population,[2]; [3],reduced
same,MHC class II+ population,[2]; [3],reduced
same,mature B cell population (B220+IgM+IgD+),[2]; splenocytes,decreased
same,ICOSL levels in CD11b+CD11c+ myeloid DC,"[2]; splenocytes, 30 mg/kg",significantly reduced
same,ICOSL levels in CD11b+CD11c− macrophages,"[2]; splenocytes, 30 mg/kg",suppressed
same,ICOSL levels in CD11b−CD11c+ lymphoid DCs,"[2]; splenocytes, 30 mg/kg",little difference
same,percentages of gp96+ MHC class II+ cells,"[2]; splenocytes, after 2 month, 30 mg/kg",~41%
same,Proteinuria,[2]; urine,reduced
